The source made the active and inactive calls. No cut-off for these calls is given here.
How the values were obtained:
[1] = tested on: NCI-H1703; test: Induction of apoptosis in human NCI-H1703 cells assessed as necrotic cells at […] measured after 72 hrs by PI/Annexin-V staining based flow cytometry analysis (reference value: 2.80% ); format: functional; conditions: dose 7.5 µM
[2] = tested on: NCI-H520; test: Induction of apoptosis in human NCI-H520 cells assessed as decrease in MCL-1 protein expression at 5 uM by measuring fold change by Western blot analysis relative to control; format: functional
[3] = tested on: NCI-H1703; test: Induction of apoptosis in human NCI-H1703 cells assessed as decrease in Bcl-XL protein expression at 5 to 10 uM by Western blot analysis; format: functional, cell-based; conditions: dose 5-10 µM
[4] = tested on: NCI-H1703; test: Induction of apoptosis in human NCI-H1703 cells assessed as viable cells at 10 uM measured after 72 hrs by PI/Annexin-V staining based flow cytometry analysis (reference value: 92.7% ); format: functional; conditions: read-out: Activity

## Cc1cc(CNCCCCCCCCCCC(=O)N[C@H](C(=O)N2C[C@H](O)C[C@H]2C(=O)N[C@@H](C)c2ccc(-c3scnc3C)cc2)C(C)(C)C)cc(C)c1-c1ncn(C)c1-c1ccnc2cc(F)ccc12
[1]
  Activity: 2.99%
[2]
  fold change (FC): 0.86
[3]
  Activity: Active
[4]
  viability at 10 µM: 7.76%

Source: ChEMBL document CHEMBL5338706, “Discovery of a potent and selective proteolysis targeting chimera (PROTAC) degrader of NSD3 histone methyltransferase” (Eur J Med Chem, 2022)
